Data on 5 molecules can be found in patent US4376125A, “Aminobenzlpropranolol and pharmaceutical preparation thereof” (University of Virginia Alumni Patents Foundation, priority 1980, dated 1983).

Where two headings read alike, the source gives them in different places.

Test [1] deals with T1, β-adrenergic receptors (Rattus norvegicus, UniProt P18090).
T1 construct: β-adrenergic receptors in intact living cells; endogenous in cells; host or cells: C6 rat glioma cells, 2B subclone
In words: Equilibrium saturation binding of (125I)-iodohydroxybenzylpindolol in treated and washed C6 glioma cells. The source says:
All washing experiments involving glioma cells utilized this salt solution as the wash medium.
It would be predicted that the occupation of a receptor by a specific ligand should be considered as an effective loss of that receptor provided that the ligand dissociates sufficiently slowly or not at all. […] For all data points, n=3.

Test [2] relates to cat papillary muscle (β-adrenergic receptors). The settings on record: cited from earlier work.
For test [3], the system named is isolated atria (β-adrenergic receptors). Kind of test: Contractility of isolated atria, species not distinguished. The format is cell-based, rat or guinea pig. The procedure: For the tests atrial preparations were obtained by excising hearts from 200-250 g male Wistar rats or 300-400 g male Hartley guinea pigs. All of the animals were pretreated with reserpine (5 mg/kg) administered interperitoneally 15-18 hours before the animals were killed by a blow to the back of the neck. Left atria were maintained at 30° C. […] The buffer was vigorously bubbled with 95% O2 -5% CO2. Atria hooked to platinum-iridium electrodes were stimulated at 1 second intervals with 10 msec monophasic pulses at twice the threshold voltage for contractions. Developed tension was recorded on Beckman oscillographic recorders (Dynographs) and the signals processed by a DEC LSI-11 microcomputer. […] The inhibition is time and dose dependent. […] The cumulative dose response curves to (-)-isoproterenol were determined (n=2-3). At the termination of each experiment, maximum tension was determined by exposing atria to 100 μM isobutylmethylxanthine. […] The degree of inhibition was similar to that observed in glioma cells. […] (2) Efficacy was also assessed by using the phosphodiesterase inhibitor, isobutylmethylxanthine, which is able to elicit a maximal response by itself.

Test [4] addresses T1, β-adrenergic receptors. In words: Displacement of specific (125I)-iodohydroxybenzylpindolol binding, acute or after washing, in intact C6 rat glioma cells. Here is the method: For the study involving glioma cells, C6 rat glioma cells, 2B subclone were grown in monolayer cultures by the technique described by Terasaki et al, J. Biol. Chem., 253, 5418-5425 in 16 mm plastic cluster dishes. In all experiments, the cells were changed from Ham's F-10 containing 10% fetal bovine serum growth medium to a simple salt medium containing 130 mM NaCl, 4 mM KCl, 0.6 mM MgSO4, 0.3 mM CaCl2, 5 mM sodium phosphate buffer (pH 7.4). All washing experiments involving glioma cells utilized this salt solution as the wash medium.
In other test plates, the cells were pretreated with aminobenzylpropranolol blocking agent and then washed repeatedly over a period of 3 hours at 37° C. before determination of [^125 I]-iodohydroxybenzylpindolol binding. For all points, n=3, which means that each data point is an average of three separate determinations. […] (This value was corrected for competition by (^125 I)-iodohydroxybenzylpindolol).

Test [5] has as its system intracellular cyclic AMP in isoproterenol-treated glioma cells (β-adrenergic receptors). In words: Isoproterenol-stimulated intracellular cyclic AMP accumulation in pretreated, washed C6 glioma cells. The format is cell-based, rat. The settings on record: for increase of apparent activation constant for isoproterenol: 40 minutes, then washed 3 hours at 37° C. Here is the method: The ability of the present β-adrenergic receptor blocking compound to function as an effective β-adrenergic blocking agent for the selective elimination of cellular β-adrenergic receptors is apparent from the following study on the interaction of aminobenzylpropranolol with glioma cells and mammalian atrium cells. For the study involving glioma cells, C6 rat glioma cells, 2B subclone were grown in monolayer cultures by the technique described by Terasaki et al, J. Biol. Chem., 253, 5418-5425 in 16 mm plastic cluster dishes. In all experiments, the cells were changed from Ham's F-10 containing 10% fetal bovine serum growth medium to a simple salt medium containing 130 mM NaCl, 4 mM KCl, 0.6 mM MgSO4, 0.3 mM CaCl2, 5 mM sodium phosphate buffer (pH 7.4). All washing experiments involving glioma cells utilized this salt solution as the wash medium. In experiments involving the glioma cells, specific (propranolol-displaceable) binding of (^125 I)-iodohydroxybenzylpindolol to C6 rat glioma cells was performed by the method developed by Terasaki et al (see above reference) with the exception that in all solutions phentolamine was omitted, and at the termination of the radioligand binding reaction, 0.1 mM (±)-propranololwas included in the cell wash solution.
In the study glioma cells were treated for 40 minutes with zero, 0.1 μM (Δ) or 1 μM aminobenzylpropranolol and then washed with salt solution for 3 hours at 37° C. After washing, the cells were treated for 20 minutes with ((-)-isoproterenol) and extracted with HCl to determine the amount of cyclic AMP. For all data points, n=3.

Test [6] has as its system rat atria (β-adrenergic receptors). In words: Isoproterenol-increased tension development in isolated rat atria. The format is cell-based. The settings on record: for EC50: Rattus norvegicus, control rat atria, read-out: apparent KAct of isoproterenol. Here is the method: (§1) For the tests atrial preparations were obtained by excising hearts from 200-250 g male Wistar rats or 300-400 g male Hartley guinea pigs. All of the animals were pretreated with reserpine (5 mg/kg) administered interperitoneally 15-18 hours before the animals were killed by a blow to the back of the neck. Left atria were maintained at 30° C. […] The buffer was vigorously bubbled with 95% O2 -5% CO2. Atria hooked to platinum-iridium electrodes were stimulated at 1 second intervals with 10 msec monophasic pulses at twice the threshold voltage for contractions. Developed tension was recorded on Beckman oscillographic recorders (Dynographs) and the signals processed by a DEC LSI-11 microcomputer. […] The inhibition is time and dose dependent. […] The cumulative dose response curves to (-)-isoproterenol were determined (n=2-3). At the termination of each experiment, maximum tension was determined by exposing atria to 100 μM isobutylmethylxanthine.

Test [7] deals with guinea pig atria (β-adrenergic receptors). In words: Isoproterenol-increased tension development in isolated guinea pig atria. Format: cell-based. The settings on record: for shift in cumulative isoproterenol dose response curve: guinea pig atria. Here is the method: as §1
The subject of test [8] is guinea pig atria. In words: Positive inotropic response of isolated guinea pig atria to histamine. The settings on record: guinea pig atria pretreated with aminobenzylpropranolol. The format is cell-based. Here is the method: Experiments were also conducted to determine the extent of aminobenzylpropranolol antagonism to isoproterenol-stimulated contractility in isolated atria. For the tests atrial preparations were obtained by excising hearts from 200-250 g male Wistar rats or 300-400 g male Hartley guinea pigs. All of the animals were pretreated with reserpine (5 mg/kg) administered interperitoneally 15-18 hours before the animals were killed by a blow to the back of the neck. Left atria were maintained at 30° C. (pH 7.4) in buffer containing: 118 mM NaCl, 4.75 mM KCl, 1.2 mM KH2 PO4, 1.2 mM MgSO4, 5.5 mM dextrose, 25 mM NaHCO3, and 1 mM CaCl2. The buffer was vigorously bubbled with 95% O2 -5% CO2. Atria hooked to platinum-iridium electrodes were stimulated at 1 second intervals with 10 msec monophasic pulses at twice the threshold voltage for contractions. Developed tension was recorded on Beckman oscillographic recorders (Dynographs) and the signals processed by a DEC LSI-11 microcomputer.
FIG. 4 contains the cumulative dose response curves to histamine treated atria (n=2-3).

Test [9] relates to β-adrenergic receptors of guinea pig taenia. The settings on record: receptors photolyzed with isoproterenol or 2-(2-hydroxy-3-isopropylaminopropoxy) iodobenzene; cited from earlier work.
[10] abbreviates: 1 μM for 50 minutes prior to washing.
Setting [11] is: blocked by N-[2-hydroxy-3-(1-naphthoxy)-propyl]-N-bromoacetylethylenediamine.

T1 sequence (P18090 whole entry): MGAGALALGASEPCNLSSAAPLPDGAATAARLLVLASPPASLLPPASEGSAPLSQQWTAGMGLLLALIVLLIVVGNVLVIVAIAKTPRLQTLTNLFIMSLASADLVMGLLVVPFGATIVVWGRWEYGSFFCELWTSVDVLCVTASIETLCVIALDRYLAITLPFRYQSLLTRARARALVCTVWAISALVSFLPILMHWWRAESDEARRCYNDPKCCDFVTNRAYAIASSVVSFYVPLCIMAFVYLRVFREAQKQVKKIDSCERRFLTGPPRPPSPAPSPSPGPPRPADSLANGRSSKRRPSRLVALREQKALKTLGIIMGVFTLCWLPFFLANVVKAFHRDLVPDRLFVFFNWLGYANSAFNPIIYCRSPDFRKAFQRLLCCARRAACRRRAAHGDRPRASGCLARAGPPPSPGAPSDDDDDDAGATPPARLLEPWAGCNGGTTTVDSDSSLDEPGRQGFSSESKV

Regarding `CC(C)(Cc1ccc(O)c(I)c1)NCC(O)COc1cccc2[nH]ccc12` (stereo not shown) [(^125 I)-iodohydroxybenzylpindolol, reference compound], in [1] (glioma cells, not different between treated and control, read-out: equilibrium dissociation constant (KD) for (125I)-iodohydroxybenzylpindolol), the Kd stood at 0.06 nM.

Regarding “N-[2-hydroxy-3-(1-naphthoxy)-propyl]-N-bromoacetylethylenediamine”, the block of receptors result in test [2] (cat papillary muscle) is listed as “irreversibly blocked”.

On to `CC(C)Cn1c(=O)n(C)c(=O)c2[nH]cnc21` [isobutylmethylxanthine, reference compound], for which, in [3] (100 μM isobutylmethylxanthine added to atria treated with 10 μM isoproterenol), the “increase in developed tension” value is “less than 5%”.

Consider `CC(C)(Cc1ccc(N)cc1)NCC(O)COc1cccc2ccccc12` (stereo not drawn) [aminobenzylpropranolol, 1-(p-amino-α,α-dimethylphenethylamino)-3-(1-naphthoxy)-2-propanol], for which the Kd in [4] (40 min at 37° C., corrected for competition by (125I)-iodohydroxybenzylpindolol, read-out: apparent KD in blocking one-half of the β-receptors) was 8 nM. In test [4] (intact living glioma cells), the “antagonist potency, displacing (125I)-iodohydroxybenzylpindolol from β-adrenergic receptors” value is recorded as “relatively potent β-adrenergic antagonist”. Further, the “ability to block β-adrenergic receptors assayed acutely (vs after washing)” value in test [4] (washed repeatedly over 3 hours at 37° C.) is recorded as “no significant difference”. In [1] (80 nM, 40 minutes (37° C.), washed for 3 hours), the “effect on affinity of the remaining receptors for (125I)-iodohydroxybenzylpindolol” value is recorded as “not accomplished by a change in the affinity”. In addition, the inhibition at 0.08 µM in [1] (40 min, 80 nM, 40 minutes (37° C.), washed for 3 hours, read-out: maximum binding capacity diminished) stood at 70%. Besides, the “maximum receptor binding (FIG. 2)” value in [1] (treated then washed with salt solution) was “marked reduction”. Besides, the “maximal attainable level of intracellular cyclic AMP” value in test [5] (0.1 μM and 1 μM) was “no change”. For the same molecule, the “increase of apparent activation constant for isoproterenol” value came out at 0.4 log units in [5] (0.1 μM) and 1.1 log units in [5] (1 μM). For the same molecule, in test [5] (only at submaximal concentrations of the catecholamine), the “increases in intracellular cyclic AMP in isoproterenol-treated glioma cells” value is “inhibited”. The “shift in cumulative isoproterenol dose response curve” value in test [6] (0.1 μM for 1 hour, rat atria) was found to be 0.5 log; in test [6] (10 μM for 1 hour, rat atria), 2 log; in [7] (0.1 μM for 1 hour), 0.5 log; in test [7] (10 μM for 1 hour), 2 log. The “fold increase in apparent KAct for isoproterenol” value is 1.2 fold in test [6] (1 μM for 5 minutes prior to washing), 5.2 fold in test [6] (1 μM for 20 minutes prior to washing) and 13.5 fold in test [6] (setting [10]). Moreover, the “increase in apparent KAct for isoproterenol” value in test [6] (setting [10]) came out at 1.1 log units. Besides, the “rightward shift of isoproterenol dose response curves” value in test [6] (3 μM for 1 hour, washed 17 hours, 30° C.) came to 1.5 log units. The “decrease in inhibition of the isoproterenol response on extended washing” value in test [6] (3 μM for 1 hour, washed 17 hours, vs parallel washed control tissues) is listed as “no detectable decrease”. The “onset of the inhibitory action” value in test [6] (rat atria) was “slow”. Also, the isoproterenol-increased tension development entry in test [6] (time and dose dependent) is listed as “inhibits”; in test [7] (time and dose dependent) it was “inhibits”. In test [8], the “positive inotropic response to histamine” value was “unaltered”. For the same molecule, the “sensitivity to isoproterenol of treated atria” value in test [3] (0.1 μM or 10 μM pretreatment, washed five times) is reported as “decreased sensitivity to isoproterenol”. The “inhibitory activity in medium transferred from treated, washed atrium to fresh atrium” value in test [3] (after washing) was “no inhibitory activity”. In addition, the “efficacy (maximum response) of isoproterenol in treated atria” value in test [3] (aminobenzylpropranolol-treated atria) is on record as “unchanged”. Moreover, the “reversal of blockage by high concentrations of isoproterenol” value in test [3] (multiple washes and rechallenges) was “did not reverse the blockage”. For the same molecule, the “maximal level of tension development” value in test [3] (pretreated with 0.1 μM isoproterenol, washed, then 10 μM aminobenzylpropranolol) is on record as “remained the same”.

As for `CC(C)NCC(O)c1ccc(O)c(O)c1` (stereo not shown) [isoproterenol, N-isopropylnoradrenaline, reference compound], the EC50 in [6] (first dose response curve) was found to be 0.9 nM. Also, the EC50 in test [6] (second dose response curve) is 4.7 nM. For the same molecule, in test [3] (0.1 μM isoproterenol), the “effect on tension in absence of inhibitor” value is “maximally effective”. Moreover, in test [3] (control atria, not pretreated with the inhibitor), the “desensitization on multiple exposures (decrease in potency for isoproterenol)” value is reported as “small degree of desensitization”. Besides, in [9], the “maximal relaxation by isoproterenol in photolyzed tissue” value is given as “maximal relaxation could still be elicited” and the “potency of isoproterenol in photolyzed tissue” value is reported as “potency was decreased”. In addition, in test [2] (setting [11]), the “inotropic and cyclic AMP responses to isoproterenol after irreversible block” value is given as “maximal”; the “potency of isoproterenol after irreversible block” value is listed as “decreased potency”.
